We go through 14 compounds from patent US9839642B2, “Beta-tetrazolyl-propionic acids as metallo-beta-lactamase inhibitors” (priority 2014, dated 2017).

By IC50 is commonly meant the concentration at which inhibition is half-maximal.

The structures appear in SMILES notation. Where only a bound is given, the exact number is not on record here.

Experiment [1] has as its system Serratia marcescens expressing IMP-1 (CL5741). Put plainly: Antibiotic potentiation activity: synergistic concentration (MITC95) with imipenem, growth by OD600. The format is cell-based. To be noted: 95% inhibition of bacterial growth, strain CL5741. In short, it runs like this: (§1)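 MITC95 = lowest inhibitor concentration giving 95% growth inhibition, read by absorbance after 22–24 h at 35° C. Compound range 200 μM to 0.195 μM, imipenem fixed at 1 or 4 μg/ml, bacteria in 1.1×CAMHB from saline suspension diluted 1:100.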

The subject of experiment [2] is Escherichia coli expressing NDM-1 (CLB30016). Described as above. Format: cell-based. To be noted: 95% inhibition of bacterial growth, strain CLB30016. In short, it runs like this:
as §1

The subject of experiment [3] is Klebsiella pneumoniae expressing VIM-1 (IHMA599644). Described as above. Format: cell-based. To be noted: 95% inhibition of bacterial growth, strain IHMA599644. In short, it runs like this: as §1
Experiment [4] has as its target VIM-1 (Pseudomonas aeruginosa, UniProt A0A0F7KYQ8). The experiment in a line: Enzyme activity: determination of IC50, fluorescence assay with CCF2-FA substrate. To be noted: enzyme 30 pM, CCF2-FA 1.25 μM, 2 hours at 25° C.; read-out: VIM1 IC50. The format is biochemical. In short, it runs like this:
(§2)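 100 mM KH2PO4 pH 7 + 0.005% Tween-20 + 10 μM ZnSO4; CCF2-FA 1.25 μM; NDM-1 1 pM, IMP-1 2 pM, VIM-1 30 pM; cpd 20–0.00063 μM final, DMSO 1:50. 2 h, 25° C. Ex 405/em 460 nm; IC50, 4-param fit.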

In experiment [5] the target is NDM-1 (Klebsiella pneumoniae, UniProt C7C422). The description is as above. The format is biochemical. To be noted: enzyme 1 pM, CCF2-FA 1.25 μM, 2 hours at 25° C.; read-out: NDM1 IC50. In short, it runs like this: as §2
Sequence of NDM-1 (C7C422 29-270, looked up, species assumed): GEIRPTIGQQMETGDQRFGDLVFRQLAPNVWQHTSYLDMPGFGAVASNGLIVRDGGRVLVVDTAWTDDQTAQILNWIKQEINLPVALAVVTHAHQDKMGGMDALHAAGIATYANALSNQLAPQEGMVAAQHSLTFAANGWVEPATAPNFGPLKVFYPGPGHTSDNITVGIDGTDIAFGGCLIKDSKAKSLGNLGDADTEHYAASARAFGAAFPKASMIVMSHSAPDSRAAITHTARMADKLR
Experiment [6] deals with IMP-1 (Serratia marcescens, UniProt P52699). The experiment is described as above. The format is biochemical. To be noted: enzyme 2 pM, CCF2-FA 1.25 μM, 2 hours at 25° C.; read-out: IMP1 IC50. In short, it runs like this:
as §2

Sequence of IMP-1 (P52699 19-246, looked up, species assumed): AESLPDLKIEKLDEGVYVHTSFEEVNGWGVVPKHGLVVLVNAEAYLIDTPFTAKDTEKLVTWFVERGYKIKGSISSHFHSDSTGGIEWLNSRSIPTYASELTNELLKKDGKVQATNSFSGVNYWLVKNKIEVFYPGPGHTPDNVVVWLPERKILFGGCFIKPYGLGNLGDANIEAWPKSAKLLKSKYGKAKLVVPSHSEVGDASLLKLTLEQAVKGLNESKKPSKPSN

In the case of `CC(C)C[C@H](C(=O)O)[C@H](Cc1ccc(C2CCNCC2)cn1)c1nnn[nH]1` [Example 101, (S)-4-methyl-2-((S)-2-(5-(piperidin-4-yl)pyridin-2-yl)-1-(1H-tetrazol-5-yl)ethyl)pentanoic acid], in experiment [1], the “IMP1 SM5741 MITC95” value worked out at 18.8 µM. Also, the “NDM1 EC30016 MITC95” value in experiment [2] was found to be 1.6 µM. The “VIM1 KP599644 MITC95” value in experiment [3] came to 18.8 µM. In addition, the half-inhibitory concentration (IC50) in experiment [4] was 13 nM; in experiment [5] it was 130 nM; in experiment [6], 2000 nM.
On to `CC(C)C[C@H](C(=O)O)[C@H](Cc1ccc(C2CCNCC2)cc1)c1nnn[nH]1` [Example 102, (S)-4-methyl-2-((S)-2-(4-(piperidin-4-yl)phenyl)-1-(1H-tetrazol-5-yl)ethyl)pentanoic acid], for which the “IMP1 SM5741 MITC95” value in experiment [1] was found to be 2.3 µM. Further, the “NDM1 EC30016 MITC95” value in experiment [2] came to 12.5 µM. The “VIM1 KP599644 MITC95” value in experiment [3] came out at 37 µM. Besides, the IC50 worked out at 5.3 nM in experiment [4], 40 nM in experiment [5] and 72 nM in experiment [6].
As to `CC(C)C[C@H](C(=O)O)[C@H](Cc1ccc(C2CCNCC2)nc1)c1nnn[nH]1` [Example 103, (S)-4-methyl-2-((S)-2-(6-(piperidin-4-yl)pyridin-3-yl)-1-(1H-tetrazol-5-yl)ethyl)pentanoic acid], the “IMP1 SM5741 MITC95” value in experiment [1] was determined as 18.8 µM. Besides, the “NDM1 EC30016 MITC95” value in experiment [2] worked out at 6.2 µM. For the same compound, the “VIM1 KP599644 MITC95” value in experiment [3] came out at 18.8 µM. Further, the concentration for half-maximal inhibition (IC50) in experiment [4] turned out to be 3.4 nM; in experiment [5] it was 150 nM; in experiment [6], 960 nM.
Turning to `CC(C)[C@H](C(=O)O)[C@H](Cc1ccc(C2CCNCC2)nc1)c1nnn[nH]1` [Example 104, (2S,3S)-2-isopropyl-4-(6-(piperidin-4-yl)pyridin-3-yl)-3-(1H-tetrazol-5-yl)butanoic acid], in experiment [1], the “IMP1 SM5741 MITC95” value came to 37 µM. Also, the “NDM1 EC30016 MITC95” value in experiment [2] turned out to be 3.1 µM. The “VIM1 KP599644 MITC95” value in experiment [3] turned out to be 18.8 µM. The IC50 stood at 14 nM in experiment [4], 180 nM in experiment [5] and 7000 nM in experiment [6].
As for `CC(C)[C@H](C(=O)O)[C@H](Cc1ccc(C2CCNC2)nc1)c1nnn[nH]1` (stereo partly drawn) [Example 105, (2S,3S)-2-isopropyl-4-(6-(pyrrolidin-3-yl)pyridin-3-yl)-3-(1H-tetrazol-5-yl)butanoic acid], the “IMP1 SM5741 MITC95” value in experiment [1] was found to be 50 µM. In experiment [2], the “NDM1 EC30016 MITC95” value is 3.1 µM. In experiment [3], the “VIM1 KP599644 MITC95” value came to 12.5 µM. Also, the values for the concentration for half-maximal inhibition (IC50) in experiment [4], in experiment [5] and in experiment [6] were 20 nM, 170 nM and 14000 nM, respectively.
With `O=C(O)[C@@H](C1CCOC1)[C@H](Cc1ccc(C2CCNC2)cc1)c1nnn[nH]1` (stereo partly drawn) [Example 107, (2R,3S)-4-(4-(pyrrolidin-3-yl)phenyl)-2-(tetrahydrofuran-3-yl)-3-(1H-tetrazol-5-yl)butanoic acid], the “IMP1 SM5741 MITC95” value in experiment [1] amounted to 50 µM. Moreover, the “NDM1 EC30016 MITC95” value in experiment [2] is 9.4 µM. In addition, the “VIM1 KP599644 MITC95” value in experiment [3] amounted to 12.5 µM. The IC50 in experiment [4] amounted to 30 nM; in experiment [5], 380 nM; in experiment [6] it was 5900 nM.
As to `CC(C)[C@H](C(=O)O)[C@H](Cc1csc(C2CCNC2)n1)c1nnn[nH]1` (stereo partly drawn) [Example 108, (2S,3S)-2-isopropyl-4-(2-(pyrrolidin-3-yl)thiazol-4-yl)-3-(1H-tetrazol-5-yl)butanoic acid], the “IMP1 SM5741 MITC95” value in experiment [1] was greater than 200 µM. Also, the “NDM1 EC30016 MITC95” value in experiment [2] amounted to 12.5 µM. The “VIM1 KP599644 MITC95” value in experiment [3] is 37 µM. The IC50 in experiment [4] is 750 nM; in experiment [5], 2800 nM; in experiment [6], greater than 20000 nM.
Turning to `CC(C)[C@H](C(=O)O)[C@H](Cc1ccc(C2CCNC2)c(F)c1)c1nnn[nH]1` (stereo partly drawn) [Example 109, (2S,3S)-4-(3-fluoro-4-(pyrrolidin-3-yl)phenyl)-2-isopropyl 3-(1H-tetrazol-5-yl)butanoic acid], the “IMP1 SM5741 MITC95” value in experiment [1] is 12.5 µM. Further, in experiment [2], the “NDM1 EC30016 MITC95” value is 3.1 µM. The “VIM1 KP599644 MITC95” value in experiment [3] was 4.7 µM. Further, the IC50 in experiment [4] was found to be 1.2 nM; in experiment [5], 17 nM; in experiment [6], 450 nM.
Regarding `Cc1cc(C[C@H](c2nnn[nH]2)[C@@H](C(=O)O)C(C)C)ccc1C1CCNC1` (stereo partly drawn) [Example 110, (2S,3S)-2-isopropyl-4-(3-methyl-4-(pyrrolidin-3-yl)phenyl)-3-(1H-tetrazol-5-yl)butanoic acid], in experiment [1], the “IMP1 SM5741 MITC95” value came out at 18.8 µM. In addition, the “NDM1 EC30016 MITC95” value in experiment [2] worked out at 4.7 µM. Further, the “VIM1 KP599644 MITC95” value in experiment [3] was determined as 6.2 µM. Moreover, the 50% inhibitory concentration (IC50) in experiment [4] stood at 4.4 nM; in experiment [5], 24 nM; in experiment [6], 1400 nM.
On to `CCC[C@H](C(=O)O)[C@H](Cc1ccc(N)cn1)c1nnn[nH]1` [Example 111, (S)-2-((S)-2-(5-aminopyridin-2-yl)-1-(1H-tetrazol-5-yl)ethyl)pentanoic acid], for which, in experiment [1], the “IMP1 SM5741 MITC95” value amounted to 44 µM. Further, the “NDM1 EC30016 MITC95” value in experiment [2] was 0.49 µM. Moreover, the “VIM1 KP599644 MITC95” value in experiment [3] came out at 5.5 µM. Moreover, the figures for the IC50 in experiment [4], in experiment [5] and in experiment [6] were 77 nM, 230 nM and 7700 nM, respectively.
For `CC(C)C[C@H](C(=O)O)[C@H](Cc1ccc(N)nc1)c1nnn[nH]1` [Example 112, 2-amino-5-((2S,3S)-3-carboxy-5-methyl-2-(2H-tetrazol-5-yl)hexyl)pyridin-1-ium 2,2,2-trifluoroacetate], the “IMP1 SM5741 MITC95” value in experiment [1] was determined as 11 µM. Besides, the “NDM1 EC30016 MITC95” value in experiment [2] was 0.54 µM. Also, the “VIM1 KP599644 MITC95” value in experiment [3] turned out to be 5.5 µM. Further, the values for the 50% inhibitory concentration (IC50) in experiment [4], in experiment [5] and in experiment [6] were 4.9 nM, 110 nM and 570 nM, respectively.
On to `CC(C)C[C@H](C(=O)O)[C@H](Cc1ccc(N)cn1)c1nnn[nH]1` [Example 113, 5-amino-2-((2S,3S)-3-carboxy-5-methyl-2-(2H-tetrazol-5-yl)hexyl)pyridin-1-ium 2,2,2-trifluoroacetate], for which the “IMP1 SM5741 MITC95” value in experiment [1] is 18.8 µM. Moreover, in experiment [2], the “NDM1 EC30016 MITC95” value is 0.78 µM. Also, the “VIM1 KP599644 MITC95” value in experiment [3] is 9.4 µM. Further, the values for the concentration for half-maximal inhibition (IC50) in experiment [4], in experiment [5] and in experiment [6] were 79 nM, 130 nM and 2100 nM, respectively.
As for `CCC[C@H](C(=O)O)[C@H](Cc1ccc(N)nc1)c1nnn[nH]1` [Example 114, (S)-2-((S)-2-(6-aminopyridin-3-yl)-1-(1H-tetrazol-5-yl)ethyl)pentanoic acid], the “IMP1 SM5741 MITC95” value in experiment [1] turned out to be 18.8 µM. In experiment [2], the “NDM1 EC30016 MITC95” value came out at 0.39 µM. Also, the “VIM1 KP599644 MITC95” value in experiment [3] worked out at 2.3 µM. In addition, the IC50 in experiment [4] is 6.2 nM; in experiment [5], 180 nM; in experiment [6], 3700 nM.
In the case of `CCC[C@H](C(=O)O)[C@H](Cc1cnc(N)s1)c1nnn[nH]1` [Example 115, (2S)-2-[(1S)-2-(2-amino-1,3-thiazol-5-yl)-1-(1H-tetrazol-5-yl)ethyl]pentanoic acid], in experiment [1], the “IMP1 SM5741 MITC95” value was 25 µM. In experiment [2], the “NDM1 EC30016 MITC95” value came out at 0.78 µM. Moreover, the “VIM1 KP599644 MITC95” value in experiment [3] was found to be 9.4 µM. In addition, the IC50 was found to be 6.5 nM in experiment [4], 170 nM in experiment [5] and 1500 nM in experiment [6].
